Laboratory results taken from PMC8662641, “Site-Specific Labeling of Endogenous Proteins Using CoLDR Chemistry” (Journal of the American Chemical Society, 2021).
Read-outs that look alike come from different tables or passages of the source.

Columns and labels:
Buffer stability assay = assay type: physicochemical
Protocol: A sample of 100 μM of the electrophile (1a–1p) was incubated with 100 μM 4-nitrocyanobenzene as an internal standard in a 100 mM potassium phosphate buffer of pH 8.0. All solvents were bubbled with argon. Reaction mixtures were kept at 37 °C with shaking. After 4 days (unless otherwise mentioned), 5 μL from the reaction mixture was injected into the LC/MS to check the stability of the compounds.

GSH reactivity assay = assay type: physicochemical; conditions: for half-life at 100 μM: 5 mM GSH in potassium phosphate buffer/DMF, pH 8, read-out: GSH t1/2
Protocol: A 100 μM (0.5 μL of a 20 mM stock) sample of the electrophile (1a–1m) was incubated with 5 mM GSH (5 μL of a 100 mM stock, freshly dissolved), 5 mM NaOH (to counter the acidity imparted by GSH), and 100 μM 4-nitrocyanobenzene (0.5 μL of a 20 mM stock solution) as an internal standard in 100 mM potassium phosphate buffer pH 8.0 and DMF at a ratio of 9:1, respectively. All solvents were bubbled with argon. Reaction mixtures were kept at 14 °C. Every 1 h 5 μL from the reaction mixture was injected into the LC/MS. The reaction was followed by the peak area of the electrophile normalized by the area of the 4-nitrocyanobenzene (i.e., by the disappearance of the starting material). The natural logarithm of the results was fitted to linear regression, and t1/2 was calculated as t1/2 = ln 2/–slope.

BTK [1] = target: T1, BTK (Homo sapiens, UniProt Q06187); assay: In-gel fluorescence labeling profile in Mino cells; conditions: 2 h incubation, in-gel fluorescence
Target sequence in this assay (Q06187 whole entry): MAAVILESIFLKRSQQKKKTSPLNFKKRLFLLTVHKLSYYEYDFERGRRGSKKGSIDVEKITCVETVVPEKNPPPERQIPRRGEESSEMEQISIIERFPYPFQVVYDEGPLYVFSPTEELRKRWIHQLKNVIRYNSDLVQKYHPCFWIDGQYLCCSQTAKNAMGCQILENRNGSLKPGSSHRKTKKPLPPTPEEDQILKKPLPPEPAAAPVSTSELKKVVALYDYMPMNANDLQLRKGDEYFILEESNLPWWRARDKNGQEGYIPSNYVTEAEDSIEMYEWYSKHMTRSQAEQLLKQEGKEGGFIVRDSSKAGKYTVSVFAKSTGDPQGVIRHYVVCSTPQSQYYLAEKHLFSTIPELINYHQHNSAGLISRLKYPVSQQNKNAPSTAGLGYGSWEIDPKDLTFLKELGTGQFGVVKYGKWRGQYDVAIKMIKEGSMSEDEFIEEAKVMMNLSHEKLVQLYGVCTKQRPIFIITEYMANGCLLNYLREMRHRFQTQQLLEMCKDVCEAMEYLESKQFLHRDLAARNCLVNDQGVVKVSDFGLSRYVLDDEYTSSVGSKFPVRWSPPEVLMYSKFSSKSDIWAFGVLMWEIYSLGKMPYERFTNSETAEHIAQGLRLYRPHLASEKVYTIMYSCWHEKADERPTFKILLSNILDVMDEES

Mino cells = assay: Degradation proteomics (label-free quantitative proteomics); assay type: cell-based, human; conditions: 1n 500 nM, 24 h
Protocol: A total of 1 × 10^6 Mino cells were treated in four replicates with either 1n (500 nM) or DMSO (0.1%) for 24 h. Cells were then harvested and washed with ice cold PBS. Samples were then centrifuged at 200 rcf, 4 °C for 5 min; then the supernatant was removed and the samples were frozen at −80 °C. Samples were dispersed in 75 μL of 50 mM ammonium bicarbonate and transferred to 1.8 mL glass vials. A 75 μL amount of 10% SDS in 50 mM ammonium bicarbonate was added, and the samples were heated to 96 °C for 6 min. The samples were sonicated thoroughly in a sonication bath until the DNA was sheared, as indicated by reduction in viscosity to a level enabling easy pipettation. Total protein concentration was estimated using the BCA assay, and 30 μg from each sample was taken for LC/MS/MS analysis. The detailed procedure is available in the Supplementary Methods Section.
Trypsin/P with a maximum number of missed cleavages of 2. Oxidation of methionine and N-terminal acetylation were included as variable modifications. The “Re-quantify” option was enabled. Carbamidomethyl (C2H3NO) was used as a fixed modification on cysteine.
Contaminants were included. Peptides were searched with a minimum peptide length of 7 and a maximum peptide mass of 6500 Da. “Second peptides” was enabled, “Dependent peptides” were disabled and the option “Match between run” was enabled with a Match time window of 0.7 min and an alignment window of 20 min. An FDR of 0.01 was used for Protein FDR, PSM FDR and XPSM FDR. Proteins were identified and quantified based on the label-free quantification (LFQ) (REF: www.mcponline.org/content/13/9/2513.short) values reported by MaxQuant. Following MaxQuant analysis, proteins identified only through razor peptides or modified peptides, as well as common contaminants, were removed, and only proteins that gave at least 3 non-zero LFQ intensity values in at least one of the data sets were retained for analysis. Missing values were then replaced from a normal distribution.
Degradation proteomics experiment (label free quantitative proteomics)
Sample preparation: 106 Mino cells were treated in four replicates with either compound or DMSO for 24 hours. Cells were then washed twice by centrifuge at 200 rcf, 4°C for 5 minutes, removing the supernatant and washed with ice cold PBS. Samples were then centrifuged at 200 rcf, 4°C for 5 minutes, then supernatant was removed and samples were frozen at -80°C. Samples were dispersed in 75 μl of 50 mM ammonium bicarbonate, and transferred to 1.8 mL glass vials.
75 μl of 10% SDS in 50 mM ammonium bicarbonate were added and the samples were heated to 96°C for 6 minutes. The samples were sonicated thoroughly in a sonication bath until the DNA was sheared as indicated by reduction in viscosity to level enabling easy pipettation. Total protein concentration was estimated using BCA assay and 30 µg from each sample was taken for the […]
The samples were reduced by the addition of 1/20 volume of 100 mM DTT and heating to 60°C for 45 minutes. The samples were cooled to room temperature, and 1/20 volume of 200 mM iodoacetamide was added and the reaction was performed in the dark for 30 minutes.
At this point, 1/10 volume of 12% phosphoric acid was added, followed by 6 volumes of 90% methanol in 50 mM ammonium bicarbonate. The samples were loaded on S-trap Micro columns (Protify), and washed 3 times with 90% methanol in 50 mM ammonium bicarbonate. The columns were spun without washing to dry the methanol. […]

BTK [2] = target: T1, BTK; assay: Degradation of BTK by a CoLDR PROTAC in Mino cells; assay type: cell-based; set-up: We incubated Mino B cells with probes containing different tags; endogenous in cells; host or cells: Mino cells; conditions: for DC50: Mino cells, 24 h, Western blot
Target sequence in this assay (Q06187 whole entry): as above

BTK kinase domain = BTK kinase domain (Homo sapiens, UniProt Q06187); assay: Labeling of recombinant BTK by intact protein LC/MS; assay type: binding; set-up: BTK kinase domain was expressed and purified as previously reported; made in house; conditions: BTK 2 μM, 2a 2 μM, 10 min, 25 °C, pH 8
BTK-1h = target: T2, BTK-1h (Homo sapiens, UniProt Q06187); assay: High-throughput screening with 1h-labeled BTK; assay type: binding; conditions: Dataset S2A; 200 μM compound, BTK-1h, 32 °C, 10 min
T2 construct: The BTK kinase domain was diluted to 2 μM in the buffer, and 2 μM 1h was added; made in house
Protocol: The collection was composed of BTK binding compounds obtained in our previous luminescence screen[37] (Data set S2). […] The resulting BTK-1h (50 μL) was added to the inhibitors.

BTK [3] = target: T1, BTK; set-up: BTK kinase domain was expressed and purified as previously reported; made in house; method as in Reddi et al., J. Am. Chem. Soc. 2021, 143 (13), 4979–4992; conditions: ref Reddi et al., J. Am. Chem. Soc. 2021, 143 (13), 4979–4992; cited from earlier work
Target sequence in this assay (Q06187 402-655 limits assumed): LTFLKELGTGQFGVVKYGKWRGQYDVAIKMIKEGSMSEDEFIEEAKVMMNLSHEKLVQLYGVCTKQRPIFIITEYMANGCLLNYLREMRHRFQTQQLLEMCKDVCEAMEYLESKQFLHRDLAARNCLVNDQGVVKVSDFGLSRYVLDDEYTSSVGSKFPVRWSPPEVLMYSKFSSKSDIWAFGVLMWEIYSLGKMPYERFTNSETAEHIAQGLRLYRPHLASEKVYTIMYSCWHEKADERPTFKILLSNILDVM

[4] = phosphate buffer pH 8, 37 °C, in 2 days

T2 sequence (Q06187 402-655): as the sequence (Q06187 402-655 limits assumed) above
BTK kinase domain, sequence (Q06187 402-655 limits assumed): as above

Compound | FI (650)/FI (620) (BTK-1h) | FI (BTK-1h)/FI (BTK-1h+Inhibitor) at 620 nm (BTK-1h) | BTK Inhibition reported in luminescence assay* (BTK [3]) | also measured
C=C(CN1CCC[C@@H](n2nc(-c3ccc(Oc4ccccc4)cc3)c3c(N)ncnc32)C1)C(=O)OCC [1a] |  |  |  | hydrolysis/elimination (Buffer stability assay; PBS buffer pH 8, 37 °C, in two days): 100%; elimination (Buffer stability assay; [4]): 50%; hydrolysis (Buffer stability assay; [4]): 50%; time to complete reaction with GSH (GSH reactivity assay; 100 μM compound, 5 mM GSH, pH 8, 14 °C): ≤ 10 min; half-life at 100 μM (GSH reactivity assay; 100 μM compound): < 0.167 h
C#CCCCCC(=O)NC1CCN(C(=O)C(=C)CN2CCC[C@@H](n3nc(-c4ccc(Oc5ccccc5)cc4)c4c(N)ncnc43)C2)CC1 [1d] |  |  |  | labeling of BTK in live Mino cells (BTK [1]): labeled BTK with more selectivity; half-life at 100 μM (GSH reactivity assay; 100 μM compound): > 100 h; less reactive toward GSH than ibrutinib (GSH reactivity assay; 5 mM GSH, pH 8): > 20 fold
C=C(CN1CCC[C@@H](n2nc(-c3ccc(Oc4ccccc4)cc3)c3c(N)ncnc32)C1)C(=O)NCCN [1e] |  |  |  | Ibr-H elimination (Buffer stability assay; phosphate buffer pH 8, 37 °C, after 4 days): 25%
C=C(CN1CCC[C@@H](n2nc(-c3ccc(Oc4ccccc4)cc3)c3c(N)ncnc32)C1)C(=O)NCCOCCOCCOCCOCCNc1cccc2c1C(=O)N(C1CCC(=O)NC1=O)C2=O (some centres unmarked) [1n] |  |  |  | Log2(DMSO/treated) (Mino cells; BTK_HUMAN): 4.3089; Log2(DMSO/treated) (Mino cells; EXOS4_HUMAN): 1.641; Log2(DMSO/treated) (Mino cells; H14_HUMAN;H11_HUMAN;H1T_HUMAN): 1.44; depletion of BTK (Mino cells; Mino cells): more than 16 fold; depletion of CSK (Mino cells; Mino cells): more than 50%; DC50 (BTK [2]; read-out: DC50): < 100 nM; DC50 (BTK [2]; read-out: DC50 according to the polynomial fit): 11.4 nM; water adduct formed (Buffer stability assay; PBS buffer pH 8, 37 °C): 15%
C=C(CN1CCC[C@@H](n2nc(-c3ccc(Oc4ccccc4)cc3)c3c(N)ncnc32)C1)C(=O)NCCOCCOCCOCCOCCC(=O)Nc1cccc2c1CN(C1CCC(=O)NC1=O)C2=O (some centres unmarked) [1p] |  |  |  | water adduct formed (Buffer stability assay; PBS buffer pH 8, 37 °C): 5%
C#CCCNC(=O)C(=C)CN1CCC(CNc2ncnc(N)c2-c2ccc(Oc3ccccc3)cc2)CC1 [2a] |  |  |  | single labeling of target (BTK) (BTK kinase domain): 100%
O=C1CCC(N2C(=O)c3cccc(O)c3C2=O)C(=O)N1 (centres unmarked) [thalidomide-OH] |  |  |  | rescue of 1n-induced BTK degradation (BTK [2]; Mino cells pretreated 2 h before PROTAC 24 h): able to rescue the degradation

Now from value to molecule, other results behind:

FI (650)/FI (620) (BTK-1h) | FI (BTK-1h)/FI (BTK-1h+Inhibitor) at 620 nm (BTK-1h) | Compound | BTK Inhibition reported in luminescence assay* (BTK [3]) | also measured
0.9224 | 1.025 | COc1cc(C[C@H](C)[C@H](C)Cc2ccc3c(c2)OCO3)ccc1O [PCM-0216424-001] | 68.7 | 
1.085 | 1.022 | COc1c(O)c(C)cc2c1C(=O)c1c(O)cccc1C2=O [PCM-0216457-001] | 64.1 | 
2.385 | 1.063 | COc1cc(O)c2c(=O)cc(-c3ccc(O)c(O)c3)oc2c1 [PCM-0216461-001] | 61 | 
1.203 | 0.9862 | COc1ccc2cc3[n+](cc2c1O)CCc1cc2c(cc1-3)OCO2.[Cl-] [PCM-0216489-001] | 97.3 | 
2.134 | 0.9621 | COc1cc(/C=C/C(=O)CC(=O)/C=C/c2ccc(O)cc2)ccc1O [PCM-0216521-001] | 110.4 | 
0.7503 | 1.048 | C[C@@H]1O[C@@H](O[C@H]2[C@H](O[C@H]3CC[C@@]4(C)[C@@H](CC[C@]5(C)[C@@H]4CC=C4[C@@H]6CC(C)(C)CC[C@]6(C(=O)O)CC[C@]45C)[C@]3(C)CO)OC[C@H](O[C@@H]3O[C@H](CO)[C@@H](O)[C@H](O)[C@H]3O)[C@@H]2O)[C@H](O)[C@H](O)[C@H]1O [PCM-0216539-001] | 52.5 | 
0.9109 | 1.037 | CC(=O)O[C@@H]1CC[C@@]2(C)[C@@H](CC[C@]3(C)[C@@H]2C(=O)C=C2[C@@H]4[C@@H](C)[C@H](C)CC[C@]4(C)CC[C@]23C)[C@@]1(C)C(=O)O [PCM-0216599-001] | 88 | 
1.505 | 1.061 | Cc1c[nH]c(/C=C2\C(=O)Nc3ccccc32)c1CCC(=O)O [PCM-0216652-001] | 83.4 | 
1.609 | 0.9946 | COc1ccc2[nH]cc(/C=C3\C(=O)Nc4ccc(NC(=O)CCN5CCCCC5)cc43)c2c1 [PCM-0216653-001] | 51.7 | 
